Data from ChEMBL document CHEMBL3046218, “Characterization of sensitivity of Rhizoctonia solani, causing rice sheath blight, to mepronil and boscalid” (Crop Prot, 2009).
In brackets after ≈: the same amount, converted by molar mass.

Key:
Rhizoctonia solani [1] = experiment: Antifungal activity against mepronil-resistant Rhizoctonia solani JSR3 after 2 days; type: functional, organism-based; conditions: JSR3, 48 h
Rhizoctonia solani [2] = experiment: Antifungal activity against mepronil-resistant Rhizoctonia solani JSR2 after 2 days; type: functional, organism-based; conditions: JSR2, 48 h
Rhizoctonia solani [3] = experiment: Antifungal activity against mepronil-resistant Rhizoctonia solani JSR1 after 2 days; type: functional, organism-based; conditions: JSR1, 48 h
Rhizoctonia solani [4] = experiment: Antifungal activity against mepronil-sensitive wild type Rhizoctonia solani JS7 after 2 days; type: functional, organism-based; conditions: JS7, 48 h
Rhizoctonia solani [5] = experiment: Antifungal activity against mepronil-resistant Rhizoctonia solani ZJR2 after 2 days; type: functional, organism-based; conditions: ZJR2, 48 h
Rhizoctonia solani [6] = experiment: Antifungal activity against mepronil-resistant Rhizoctonia solani ZJR3 after 2 days; type: functional, organism-based; conditions: ZJR3, 48 h
Rhizoctonia solani [7] = experiment: Antifungal activity against mepronil-resistant Rhizoctonia solani ZJR1 after 2 days; type: functional, organism-based; conditions: ZJR1, 48 h
Rhizoctonia solani [8] = experiment: Antifungal activity against mepronil-sensitive wild type Rhizoctonia solani ZJ-1 after 2 days; type: functional, organism-based; conditions: ZJ-1, 48 h
Rhizoctonia solani [9] = experiment: Resistant factor, ratio of EC50 for mepronil-resistant Rhizoctonia solani ZJR1 to EC50 for mepronil-sensitive wild type Rhizoctonia solani ZJ-1; type: functional
Rhizoctonia solani [10] = experiment: Resistant factor, ratio of EC50 for mepronil-resistant Rhizoctonia solani JSR3 to EC50 for mepronil-sensitive wild type Rhizoctonia solani JS7; type: functional
Rhizoctonia solani [11] = experiment: Resistant factor, ratio of EC50 for mepronil-resistant Rhizoctonia solani JSR2 to EC50 for mepronil-sensitive wild type Rhizoctonia solani JS7; type: functional
Rhizoctonia solani [12] = experiment: Resistant factor, ratio of EC50 for mepronil-resistant Rhizoctonia solani JSR1 to EC50 for mepronil-sensitive wild type Rhizoctonia solani JS7; type: functional
Rhizoctonia solani [13] = experiment: Resistant factor, ratio of EC50 for mepronil-resistant Rhizoctonia solani ZJR3 to EC50 for mepronil-sensitive wild type Rhizoctonia solani ZJ-1; type: functional
Rhizoctonia solani [14] = experiment: Resistant factor, ratio of EC50 for mepronil-resistant Rhizoctonia solani ZJR2 to EC50 for mepronil-sensitive wild type Rhizoctonia solani ZJ-1; type: functional

Row | SMILES | EC50 (Rhizoctonia solani [1]) | EC50 (Rhizoctonia solani [2]) | EC50 (Rhizoctonia solani [3]) | EC50 (Rhizoctonia solani [4]) | EC50 (Rhizoctonia solani [5]) | EC50 (Rhizoctonia solani [6]) | EC50 (Rhizoctonia solani [7]) | EC50 (Rhizoctonia solani [8]) | Ratio EC50 (Rhizoctonia solani [9]) | Ratio EC50 (Rhizoctonia solani [10]) | Ratio EC50 (Rhizoctonia solani [11]) | Ratio EC50 (Rhizoctonia solani [12]) | Ratio EC50 (Rhizoctonia solani [13]) | Ratio EC50 (Rhizoctonia solani [14])
1 | CO/C=C(/C(=O)OC)c1ccccc1Oc1cc(Oc2ccccc2C#N)ncn1 [AZOXYSTROBIN] | 0.19 µg/mL (≈ 0.471 µM) | 0.18 µg/mL (≈ 0.446 µM) | 0.17 µg/mL (≈ 0.421 µM) | 0.19 µg/mL (≈ 0.471 µM) | 0.34 µg/mL (≈ 0.843 µM) | 0.32 µg/mL (≈ 0.793 µM) | 0.32 µg/mL (≈ 0.793 µM) | 0.32 µg/mL (≈ 0.793 µM) |  |  |  |  |  | 
2 | O=C(Nc1ccccc1-c1ccc(Cl)cc1)c1cccnc1Cl [BOSCALID] | 2.08 µg/mL (≈ 6.06 µM) | 2.13 µg/mL (≈ 6.21 µM) | 2.26 µg/mL (≈ 6.58 µM) | 2.15 µg/mL (≈ 6.26 µM) | 2.15 µg/mL (≈ 6.26 µM) | 1.93 µg/mL (≈ 5.62 µM) | 1.87 µg/mL (≈ 5.45 µM) | 1.98 µg/mL (≈ 5.77 µM) |  |  |  |  |  | 
3 | CO/N=C(/C(=O)OC)c1ccccc1COc1ccccc1C [KRESOXIM-METHYL] | 0.16 µg/mL (≈ 0.511 µM) | 0.14 µg/mL (≈ 0.447 µM) | 0.2 µg/mL (≈ 0.638 µM) | 0.16 µg/mL (≈ 0.511 µM) | 0.29 µg/mL (≈ 0.925 µM) | 0.37 µg/mL (≈ 1.18 µM) | 0.33 µg/mL (≈ 1.05 µM) | 0.34 µg/mL (≈ 1.09 µM) |  |  |  |  |  | 
4 | Cc1ccccc1C(=O)Nc1cccc(OC(C)C)c1 [MEPRONIL] | 20.6 µg/mL (≈ 76.3 µM) | 14.2 µg/mL (≈ 52.6 µM) | 8.56 µg/mL (≈ 31.8 µM) | 0.098 µg/mL (≈ 0.364 µM) | 12.7 µg/mL (≈ 47 µM) | 20.8 µg/mL (≈ 77.3 µM) | 13.5 µg/mL (≈ 50.3 µM) |  | 116.7 | 209.8 | 144.5 | 87.3 | 179.5 | 109.2
5 | OCC1=C[C@H](N[C@H]2C[C@H](CO)[C@@H](O[C@@H]3O[C@H](CO)[C@@H](O)[C@H](O)[C@H]3O)[C@H](O)[C@H]2O)[C@H](O)[C@@H](O)[C@@H]1O [VALIDAMYCIN] | 0.14 µg/mL (≈ 0.281 µM) | 0.18 µg/mL (≈ 0.362 µM) | 0.16 µg/mL (≈ 0.322 µM) | 0.18 µg/mL (≈ 0.362 µM) | 0.09 µg/mL (≈ 0.181 µM) | 0.1 µg/mL (≈ 0.201 µM) | 0.08 µg/mL (≈ 0.161 µM) | 0.09 µg/mL (≈ 0.181 µM) |  |  |  |  |  | 
